# Laboratory results taken from patent US12059478B2, “Gene therapy” (Ospedale San Raffaele S.r.l., priority 2016, dated 2024).
# Tests used:
# ATR [1] = molecular target: ATR (Homo sapiens, UniProt Q13535, F134E); conditions: cited from earlier work
# ATM kinase = ATM kinase (Homo sapiens, UniProt Q13315); conditions: cited from earlier work
# ATR [2] = molecular target: T1, ATR (Mus musculus, UniProt Q9JKK8); conditions: 3T3TopBP1-ER cells; cited from earlier work
# T1 construct: endogenous in cells; host or cells: 3T3TopBP1-ER cells
# human CB-CD34+ cells [3] = assay: Transduction efficiency (GFP expression, integrated vector copy number); format: cell-based; conditions: LV MOI 100, 10 μM, 14 days
# Source text: (§1) Human CD34+ hematopoietic stem and progenitor cells (HSPC) and CD4+ T cells were isolated through magnetic bead selection according to the manufacturer's instructions (Milteny) from umbilical cord blood (CB) collected upon informed consent from healthy volunteers according to the Institutional Ethical Committee approved protocol (TIGET01). Otherwise, CB and bone marrow (BM)-derived CD34+ were directly purchased from Lonza. Cells were purified and cultured as described in Petrillo et al. (Petrillo, C. et al. (2015) Molecular Therapy 23: 352-362). K562 and Hela cell lines were plated in complete Iscove's modified Dulbecco's medium (Euroclone). […] All cells were transduced at the indicated multiplicity of infection (MOI) as calculated by titration of vector stocks on 293T cells for Lentiviral and Retroviral vectors. Transductions with the AAV6 vectors were performed at an MOI of 10000 as calculated by titration of the vector preparation expressed in vector genome per mL (vg/mL). […]
# (§2) Human HSPC fluorescence associated cell sorting was performed as described in Petrillo et al. (Petrillo, C. et al. (2015) Molecular Therapy 23: 352-362). All cytometric analyses were performed using the FACS […] instrument and LSRFortessa instruments (BD Biosciences, San Jose, CA) and analysed with the FACS Express software (De Novo Software, Glendale, CA). […]
# [4] = system: p53 signalling (p21 mRNA) in human CD34+ HSPC; assay: p21 mRNA induction (p53 signalling) after vector transduction, Taqman; format: cell-based; conditions: for LV-induced p21 mRNA in presence of the inhibitor: CB-CD34+, LV MOI 100, inhibitor 10 μM, 48 h
# Source text: Human CD34+ hematopoietic stem and progenitor cells (HSPC) and CD4+ T cells were isolated through magnetic bead selection according to the manufacturer's instructions (Milteny) from umbilical cord blood (CB) collected upon informed consent from healthy volunteers according to the Institutional Ethical Committee approved protocol (TIGET01). Otherwise, CB and bone marrow (BM)-derived CD34+ were directly purchased from Lonza. Cells were purified and cultured as described in Petrillo et al. (Petrillo, C. et al. (2015) Molecular Therapy 23: 352-362). K562 and Hela cell lines were plated in complete Iscove's modified Dulbecco's medium (Euroclone). HL-60 cells were grown and transduced in complete RPMI. HCT-116 cells were grown and transduced in complete Dulbecco's Modified Eagle Medium (DMEM). Murine Lin− cells were isolated through magnetic bead selection according to the manufacturer's instructions (Miltenyi) from bone marrow of euthanised C57/BL6 mice. For the clinical standard double-hit transduction protocol, cells were washed 16 h after the first vector exposure, left to recover in cytokine-supplemented medium for 10 h and re-exposed to the second hit of vector for another 16 h before transplantation. All animal procedures were performed according to protocols approved by the Animal Care and Use Committee of the Ospedale San Raffaele (IACUC 611) and according to Italian law. All cells were transduced at the indicated multiplicity of infection (MOI) as calculated by titration of vector stocks on 293T cells for Lentiviral and Retroviral vectors. Transductions with the AAV6 vectors were performed at an MOI of 10000 as calculated by titration of the vector preparation expressed in vector genome per mL (vg/mL). All the transductions were performed at 1×10^6 cells/mL concentration. In the experiment with anti-retroviral inhibitors, the drugs were added together with the vector. Raltegravir and 3TC were used at 10 μM, and AZT at 25 μM. In the ATM inhibition experiment, single hit of the ATM inhibitor KU55933 (Selleck Chemicals) was added to the cells 2 hours before the transduction at 10 μM concentration. All cells were maintained in a 5% CO2 humidified atmosphere at 37° C.
# Total RNA was extracted with the RNeasy Plus Micro kit or RNeasy Micro Kit (Qiagen) and Reverse transcription was performed using SuperScriptVILO cDNA Synthesis Kit (ThermoFisher Scientific) according to the manufacturers' instructions. Gene expression analysis was performed by Taqman probe (Thermo Fisher, Table 6) as described in Petrillo et al. (Petrillo, C. et al. (2015) Molecular Therapy 23: 352-362), human HPRT1 or murine Hprt were used to normalise the total quantity of human or mouse cDNA input respectively.
# [5] = system: Interferon stimulated genes (IRF7, OAS1, ISG15) in human CB-CD34+; assay: Interferon stimulated gene mRNA induction; format: cell-based; conditions: RV MOI 100, 48 h, Raltegravir and KU55933 10 μM, AZT 25 μM
# Source text: as §1, with “(Euroclone). HL-60 cells were grown and transduced in complete RPMI. HCT-116 cells were grown and transduced in complete Dulbecco's Modified Eagle Medium (DMEM). Murine Lin− cells were isolated through magnetic bead selection according to the manufacturer's instructions (Miltenyi) from bone marrow of euthanised C57/BL6 mice.” for “(Euroclone).”
# human CD34+ HSPC = assay: Annexin V apoptosis assay after transduction; format: cell-based
# Source text: as §1, with “(Euroclone). HL-60 cells were grown and transduced in complete RPMI. HCT-116 cells were grown and transduced in complete Dulbecco's Modified Eagle Medium (DMEM). Murine Lin− cells were isolated through magnetic bead selection according to the manufacturer's instructions (Miltenyi) from bone marrow of euthanised C57/BL6 mice. For the clinical standard double-hit transduction protocol, cells were washed 16 h after the first vector exposure, left to recover in cytokine-supplemented medium for 10 h and re-exposed to the second hit of vector for another 16 h before transplantation.” for “(Euroclone).”
# as §2, with “CA). GFP expression in transduced cells was measured 5-7 days post-transduction.” for “CA).”
# human CB-CD34+ cells [6] = assay: Cell proliferation dye assay; format: cell-based; conditions: LV MOI 100, 2 days
# mPB CD34+ cells = assay: Two-hit transduction protocol in mPB CD34+ cells with clinical-grade LV (apoptosis, CFC, cell counts, p21); format: cell-based, human; conditions: two hits MOI 100 clinical-grade LV, 10 μM
# Source text: as §1
# CFC assay cells were performed as described in Petrillo et al and Gentner et al. (Petrillo, C. et al. (2015) Molecular Therapy 23: 352-362; Gentner, B. et al. (2010) Science Translational Medicine 2: 58ra84). After ten days, colonies were identified as erythroid or myeloid by morphological criteria, counted, plucked and pooled into sets of three to obtain DNA for quantification of vector content. […]
# [7] = DMSO, ethanol; cited from earlier work
# [8] = system: human CD45+ cells in the peripheral blood; assay: Transplantation of transduced human HSPC in NSG mice (engraftment); conditions: transient inhibition during ex vivo transduction
# [9] = CB-CD34+ exposed to AAV-6 MOI 10000, 10 μM
# Chain of ATR (Homo sapiens, UniProt Q13535, F134E) (Q13535 whole entry F134E): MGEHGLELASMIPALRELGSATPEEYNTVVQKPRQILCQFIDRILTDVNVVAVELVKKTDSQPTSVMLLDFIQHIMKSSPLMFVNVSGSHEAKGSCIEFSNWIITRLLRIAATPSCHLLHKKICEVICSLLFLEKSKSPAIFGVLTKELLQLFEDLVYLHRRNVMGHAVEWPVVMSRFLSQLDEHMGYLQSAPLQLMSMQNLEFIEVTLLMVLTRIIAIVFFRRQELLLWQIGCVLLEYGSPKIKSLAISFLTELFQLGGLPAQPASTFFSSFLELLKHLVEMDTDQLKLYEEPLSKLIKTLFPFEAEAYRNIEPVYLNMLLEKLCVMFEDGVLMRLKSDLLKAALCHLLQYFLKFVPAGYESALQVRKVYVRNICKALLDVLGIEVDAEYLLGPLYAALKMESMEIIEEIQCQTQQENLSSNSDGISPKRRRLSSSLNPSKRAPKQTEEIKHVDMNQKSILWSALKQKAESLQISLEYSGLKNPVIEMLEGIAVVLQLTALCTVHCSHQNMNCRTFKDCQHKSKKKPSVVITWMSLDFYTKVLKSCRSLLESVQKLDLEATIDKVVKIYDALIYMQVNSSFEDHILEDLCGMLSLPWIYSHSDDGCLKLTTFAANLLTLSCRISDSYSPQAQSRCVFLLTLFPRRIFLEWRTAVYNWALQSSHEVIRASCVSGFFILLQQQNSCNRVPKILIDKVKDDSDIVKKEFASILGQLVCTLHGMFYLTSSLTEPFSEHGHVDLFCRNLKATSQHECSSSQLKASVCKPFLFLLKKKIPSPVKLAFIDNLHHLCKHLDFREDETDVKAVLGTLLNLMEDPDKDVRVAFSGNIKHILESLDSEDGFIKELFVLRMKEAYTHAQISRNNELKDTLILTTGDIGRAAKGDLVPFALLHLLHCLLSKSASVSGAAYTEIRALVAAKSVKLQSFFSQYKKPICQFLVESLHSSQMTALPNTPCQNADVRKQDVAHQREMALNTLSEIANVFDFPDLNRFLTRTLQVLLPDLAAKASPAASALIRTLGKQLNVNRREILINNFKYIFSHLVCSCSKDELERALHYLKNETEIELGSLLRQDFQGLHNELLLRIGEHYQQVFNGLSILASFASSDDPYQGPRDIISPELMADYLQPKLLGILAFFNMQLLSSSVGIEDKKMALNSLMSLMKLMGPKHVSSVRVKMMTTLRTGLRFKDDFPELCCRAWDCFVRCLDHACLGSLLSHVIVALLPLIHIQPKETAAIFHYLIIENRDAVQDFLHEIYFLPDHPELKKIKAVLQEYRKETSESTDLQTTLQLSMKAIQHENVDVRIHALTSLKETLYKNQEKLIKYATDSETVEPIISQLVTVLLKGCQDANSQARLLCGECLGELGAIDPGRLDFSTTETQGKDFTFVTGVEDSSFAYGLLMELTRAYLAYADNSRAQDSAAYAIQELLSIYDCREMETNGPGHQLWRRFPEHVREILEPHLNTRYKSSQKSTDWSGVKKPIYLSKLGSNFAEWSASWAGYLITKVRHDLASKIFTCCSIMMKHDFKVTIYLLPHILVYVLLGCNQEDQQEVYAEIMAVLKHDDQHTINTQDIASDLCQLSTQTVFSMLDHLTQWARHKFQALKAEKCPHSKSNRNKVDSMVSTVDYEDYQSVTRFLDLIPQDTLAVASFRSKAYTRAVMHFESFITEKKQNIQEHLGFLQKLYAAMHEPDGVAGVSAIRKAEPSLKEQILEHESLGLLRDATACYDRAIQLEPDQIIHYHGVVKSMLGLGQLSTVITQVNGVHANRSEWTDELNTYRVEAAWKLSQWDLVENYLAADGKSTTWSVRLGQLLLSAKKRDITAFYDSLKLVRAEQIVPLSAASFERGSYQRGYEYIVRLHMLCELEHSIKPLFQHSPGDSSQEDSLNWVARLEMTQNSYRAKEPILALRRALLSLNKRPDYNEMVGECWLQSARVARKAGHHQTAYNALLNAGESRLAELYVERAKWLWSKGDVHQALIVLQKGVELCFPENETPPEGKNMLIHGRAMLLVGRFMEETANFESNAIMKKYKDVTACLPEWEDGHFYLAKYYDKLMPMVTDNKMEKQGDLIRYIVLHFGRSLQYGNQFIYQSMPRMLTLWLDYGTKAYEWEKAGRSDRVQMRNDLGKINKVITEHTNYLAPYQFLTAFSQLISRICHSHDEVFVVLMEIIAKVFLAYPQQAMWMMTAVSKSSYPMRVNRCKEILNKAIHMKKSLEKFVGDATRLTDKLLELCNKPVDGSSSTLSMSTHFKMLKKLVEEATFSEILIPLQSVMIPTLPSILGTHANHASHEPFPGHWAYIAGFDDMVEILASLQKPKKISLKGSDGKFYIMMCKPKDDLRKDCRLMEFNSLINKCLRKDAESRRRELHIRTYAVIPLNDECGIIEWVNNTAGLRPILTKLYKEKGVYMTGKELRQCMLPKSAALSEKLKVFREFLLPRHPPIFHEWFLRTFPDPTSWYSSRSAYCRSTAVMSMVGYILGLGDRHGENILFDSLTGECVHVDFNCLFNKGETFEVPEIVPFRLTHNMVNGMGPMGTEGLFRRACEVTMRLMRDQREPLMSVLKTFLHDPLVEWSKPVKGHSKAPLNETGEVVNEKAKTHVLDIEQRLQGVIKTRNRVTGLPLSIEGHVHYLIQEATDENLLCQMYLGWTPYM
# Chain of ATR (Homo sapiens, UniProt Q13535, F134E) (Q8WXE1 whole entry partner): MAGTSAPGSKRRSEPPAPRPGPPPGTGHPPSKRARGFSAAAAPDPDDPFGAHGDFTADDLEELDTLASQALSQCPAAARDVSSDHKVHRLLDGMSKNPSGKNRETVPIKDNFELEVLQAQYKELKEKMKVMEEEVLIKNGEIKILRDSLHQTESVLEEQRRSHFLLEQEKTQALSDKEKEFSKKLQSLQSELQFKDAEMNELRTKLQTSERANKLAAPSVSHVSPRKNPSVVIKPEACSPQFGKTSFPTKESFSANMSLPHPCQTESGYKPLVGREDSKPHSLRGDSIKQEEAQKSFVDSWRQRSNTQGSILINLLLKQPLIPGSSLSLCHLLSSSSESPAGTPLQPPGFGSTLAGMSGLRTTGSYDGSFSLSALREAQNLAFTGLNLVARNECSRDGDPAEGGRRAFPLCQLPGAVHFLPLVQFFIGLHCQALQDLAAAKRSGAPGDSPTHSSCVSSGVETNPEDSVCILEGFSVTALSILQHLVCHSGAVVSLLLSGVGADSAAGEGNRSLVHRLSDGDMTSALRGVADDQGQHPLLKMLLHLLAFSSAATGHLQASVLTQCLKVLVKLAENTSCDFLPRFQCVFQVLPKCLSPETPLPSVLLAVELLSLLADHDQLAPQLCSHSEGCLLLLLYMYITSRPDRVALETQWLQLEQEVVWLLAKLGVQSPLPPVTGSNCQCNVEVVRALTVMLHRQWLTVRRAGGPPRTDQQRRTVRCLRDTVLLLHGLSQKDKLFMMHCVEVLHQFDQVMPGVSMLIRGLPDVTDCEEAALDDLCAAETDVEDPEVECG
molecule,measurement,setting,value
O=C(NC(NC(=S)Nc1ccc(F)c([N+](=O)[O-])c1)C(Cl)(Cl)Cl)C(c1ccccc1)c1ccccc1 (centres unmarked) [CGK 733],IC50,ATR [1],~200 nM
same,IC50,ATM kinase,~200 nM
COc1cc2ncnc(-n3nc(-c4ccccn4)nc3N)c2cc1OC [CP-466722],Effect on ATR,ATR [1],does not affect ATR
same,ATM kinase inhibition,ATM kinase,potent and reversible ATM kinase inhibitor
"Cn1c(=O)n(-c2ccc(C(C)(C)C#N)cc2)c2c3cc(-c4cnc5ccccc5c4)ccc3ncc21 [BEZ235, Dactolisib]",IC50,ATR [2],~21 nM
Cc1nnc(C(=O)NC(C)(C)c2nc(C(=O)NCc3ccc(F)cc3)c(O)c(=O)n2C)o1 [Raltegravir],LV integration (VCN) in presence of integrase inhibitor,human CB-CD34+ cells [3],efficient block
same,LV-induced p21 mRNA in presence of the inhibitor,[4],still occurred
same,γRV-mediated ISG induction in presence of the inhibitor,[5],occurred also
O=c1cc(-c2cccc3c2Sc2ccccc2S3)oc(N2CCOCC2)c1 [KU-55933],AAV-6-induced apoptosis under ATM inhibition,human CD34+ HSPC; [9],rescued
same,LV-induced apoptosis in presence of the inhibitor,"human CD34+ HSPC; CB-CD34+, LV MOI 100, inhibitor 10 μM, 48 h",partially abrogated
same,Proliferation delay of LV-transduced HSPC under ATM inhibition,human CB-CD34+ cells [6],did not affect
same,AAV-6-induced p21 mRNA under ATM inhibition,[4]; [9],rescued
same,LV-induced p21 mRNA in presence of the inhibitor,[4],significantly reduced
same,"Impact of ATM inhibition on apoptosis, colony output, cell counts in culture and p21 induction",mPB CD34+ cells,Positive impact
same,γRV-mediated ISG induction in presence of the inhibitor,[5],no impact
same,Solubility,[7],soluble in DMSO and ethanol
same,Improvement of LV-exposed HSPC engraftment,[8],around 25%
"GSE56: dominant negative form of p53 (SEQ ID NO: 6), over-expressed from a LV (protein, listed as Homo sapiens) CPGRDRRTEEENFRKKEEHCPELPPGSAKRALPTSTSSSPQQKKKPLDGEYFTLKIRGRERFEMFRELNEALELKDARAAEESGDSRAHSSYPK",Apoptosis upon a second round of transduction,"human CD34+ HSPC; GSE56-expressing HSPC, 48 h after second hit",reduced apoptosis
same,p21 induction upon a second round of LV or AAV6 transduction,[4]; GSE56-expressing CB-CD34+ vs control transduced,completely prevented
same,p53 signalling upon DNA damage by Captothecin (CPT),[4]; GSE56-overexpressing HSPC,efficiently block p53 signalling
